Literature values, collected in patent US20040167185A1, “Methods of treating conditions associated with an Edg-3 receptor” (priority 2003, published 2004).
Structures can show the parent of a compound that is named as a salt.

Key:
[1] = biological target: Adrenergic β; conditions: Kd of the radioligand; Wistar rat brain; historical value
[2] = biological target: Serotonin 5-HT1, non-selective; conditions: Kd of the radioligand; Wistar rat cerebral cortex; historical value
[3] = biological target: Adrenergic α1, non-selective
[4] = biological target: T1, Angiotensin AT2 (Homo sapiens, UniProt P50052); conditions: Kd of the radioligand; Human recombinant Hela cells; historical value
T1 construct: expressed in transfected cells; host or cells: Hela cells
T1 sequence (P50052 1-363): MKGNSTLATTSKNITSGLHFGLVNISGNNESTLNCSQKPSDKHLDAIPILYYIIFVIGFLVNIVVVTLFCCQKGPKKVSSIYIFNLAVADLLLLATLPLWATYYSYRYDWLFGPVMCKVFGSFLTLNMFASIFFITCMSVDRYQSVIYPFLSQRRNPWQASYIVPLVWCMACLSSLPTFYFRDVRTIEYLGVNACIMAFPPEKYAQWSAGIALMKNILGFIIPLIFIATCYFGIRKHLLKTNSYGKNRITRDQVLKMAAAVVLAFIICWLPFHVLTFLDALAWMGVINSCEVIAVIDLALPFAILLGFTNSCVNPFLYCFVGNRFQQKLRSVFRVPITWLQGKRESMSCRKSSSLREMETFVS

In the case of CCCc1ccccc1OCC(O)CNC(C)C (stereo not shown) [^3H Dihydroaplenolol, Dihydroaplenolol], the Kd [1] is listed as 0.5 nM.

For NCCc1c[nH]c2ccc(O)cc12 [^3H Serotonin (5-HT) Trifluoroacetate, Serotonin (5-HT) Trifluoroacetate], the Kd [2] is listed as 0.61 nM.

In the case of COc1cc2nc(N3CCN(C(=O)c4ccco4)CC3)nc(N)c2cc1OC [^3H Prazosin, Prazosin], the Kd [3] is given as 0.29 nM.

In the case of CGP-42112A [^125I CGP-42112A], the Kd [4] is listed as 0.012 nM.
